# Test system: C57bl/6 bone marrow derived macrophages
# Assay: LPS-induced TNFα and IL-6 in C57bl/6 BMDM with controls
# Type: cell-based
# Details: C57bl/6 BMDM re-stimulated with 1 ng/ml LPS ± 25 μg/ml nanoparticles or controls
# Procedure: FIG. 9 illustrates reduction of TNFα and IL-6 production from C57bl/6 bone marrow derived macrophages (BMDM) incubated with LPS and α2,8 sialic acid conjugated PLGA nanoparticles. The BMDM were stimulated with 1 ng/ml LPS overnight to up-regulate Siglec-E. Cells were washed twice in serum-free DMEM prior to resting for 2 hr. Cells were re-stimulated with 1 ng/ml LPS±α2,8 sialic acid conjugated PLGA nanoparticles (NP) or appropriate controls—Unconjugated (nude) NP, Sialic acid washed, but unconjugated NP, Sialic acid at same concentration as NP or nanoparticles conjugated to the non-Siglec binding glucosamine. TNFα and IL-6 was measured by ELISA. One way ANOVA was used to determine significance.
# 4×10^4/well C57bl/6 bone marrow derived macrophages were stimulated with 1 ng/ml LPS overnight to up-regulate Siglec-E. Cells were washed twice in serum-free DMEM prior to resting for 2 hr. The results of cells re-stimulated with 1 ng/ml LPS±α2,8 sialic acid conjugated PLGA nanoparticles (NP) or appropriate controls—Unconjugated (nude) nanoparticles, Sialic acid washed—but unconjugated nanoparticles, Sialic acid at same concentration as nanoparticles or nanoparticles conjugated to the non-Siglec binding glucosamine are shown. TNFα and IL-6 was measured by ELISA. One way ANOVA with post-hoc Tukey test was used to determine significance. P=0.001.
substance,measurement,value
alpha 2-8 diacetylneuraminic acid [sialic acid],IL-6 (ELISA),insufficient to cause the effect observed
same,TNFα (ELISA),insufficient to cause the effect observed

# — patent US8962032B2, “Modulator” (The Queen's University of Belfast, priority 2009, dated 2015)
